Assay results as given in US9274101B2 (BIOLOG, Inc., priority 2001, dated 2016).

Assays:
Type in all cases: cell-based, human
HepG2 cells = HepG2 cells on flat bottom plastic wells, energy sources at a range of concentrations
Procedure, shortened: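 HepG2 cells plated overnight at 4×10^4 cells/cm^2 in glucose-, glutamine- and pyruvate-free DME with 10% HI FBS, then exposed to each energy source at 0.033 to 20 mM final for 48 to 72 h at 37° C, 5% CO2. MTS/PMS colour read at 490 nm (reference 650 nm) after 4-24 h; cell-free plate OD subtracted, data normalised to % negative control (water, no energy source).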

[1] = system: Undifferentiated HL-60 cells; test: Energy use by undifferentiated HL-60 cells
HL-60 cells = test: Effect of 1 mM chloramphenicol on HL-60 energy utilization; conditions: negative control without chloramphenicol
Procedure, shortened: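 Washed HL-60 cells (5×10^4/well) in DME-R with chloramphenicol (1 mM final) were exposed to test energy sources at 0.033 to 20 mM final for 24 h at 37° C, 5% CO2. MTS/MPMS reagent was then added and read 24 h later at 490 nm (650 nm reference). Cell-free plate OD was subtracted, and values were given as % of the negative control without chloramphenicol.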

[2] = energy source 0.03 mM with 1 mM chloramphenicol
[3] = energy source 0.10 mM with 1 mM chloramphenicol
[4] = energy source 0.33 mM with 1 mM chloramphenicol
[5] = energy source 1.00 mM with 1 mM chloramphenicol
[6] = energy source 3.3 mM with 1 mM chloramphenicol
[7] = energy source 10 mM with 1 mM chloramphenicol
[8] = energy source 15 mM with 1 mM chloramphenicol
[9] = energy source 20 mM with 1 mM chloramphenicol

SMILES: O=C(O)[C@@H]1C[C@@H](O)CN1 [hydroxy L-proline]
- HepG2 Cells Responses After 72 hours in Culture and a 4 hour Color Development Period (HepG2 cells; Conc. 0.03 mM): 97.0 % of negative control
- HepG2 Cells Responses After 72 hours in Culture and a 4 hour Color Development Period (HepG2 cells; Conc. 0.10 mM): 139.9 % of negative control
- HepG2 Cells Responses After 72 hours in Culture and a 4 hour Color Development Period (HepG2 cells; Conc. 0.33 mM): 162.2 % of negative control
- HepG2 Cells Responses After 72 hours in Culture and a 4 hour Color Development Period (HepG2 cells; Conc. 1.00 mM): 140.5 % of negative control
- HepG2 Cells Responses After 72 hours in Culture and a 4 hour Color Development Period (HepG2 cells; Conc. 3.3 mM): 126.8 % of negative control
- HepG2 Cells Responses After 72 hours in Culture and a 4 hour Color Development Period (HepG2 cells; Conc. 10 mM): 123.1 % of negative control
- HepG2 Cells Responses After 72 hours in Culture and a 4 hour Color Development Period (HepG2 cells; Conc. 15 mM): 101.3 % of negative control
- HepG2 Cells Responses After 72 hours in Culture and a 4 hour Color Development Period (HepG2 cells; Conc. 20 mM): 62.8 % of negative control
- Energy Use by Undifferentiated HL-60 Cells ([1]; Conc. 0.03 mM): 109.9 % of negative control
- Energy Use by Undifferentiated HL-60 Cells ([1]; Conc. 0.10 mM): 112.9 % of negative control
- Energy Use by Undifferentiated HL-60 Cells ([1]; Conc. 0.33 mM): 99.6 % of negative control
- Energy Use by Undifferentiated HL-60 Cells ([1]; Conc. 1.00 mM): 104.7 % of negative control
- Energy Use by Undifferentiated HL-60 Cells ([1]; Conc. 3.3 mM): 114.7 % of negative control
- Energy Use by Undifferentiated HL-60 Cells ([1]; Conc. 10 mM): 117.8 % of negative control
- Energy Use by Undifferentiated HL-60 Cells ([1]; Conc. 15 mM): 124.2 % of negative control
- Energy Use by Undifferentiated HL-60 Cells ([1]; Conc. 20 mM): 101.8 % of negative control
- Effect of 1 mM chloramphenicol on HL-60 Energy Utilization (HL-60 cells; [2]): 1.2 % of negative control
- Effect of 1 mM chloramphenicol on HL-60 Energy Utilization (HL-60 cells; [3]): −5.0 % of negative control
- Effect of 1 mM chloramphenicol on HL-60 Energy Utilization (HL-60 cells; [4]): 2.6 % of negative control
- Effect of 1 mM chloramphenicol on HL-60 Energy Utilization (HL-60 cells; [5]): −1.2 % of negative control
- Effect of 1 mM chloramphenicol on HL-60 Energy Utilization (HL-60 cells; [6]): 4.4 % of negative control
- Effect of 1 mM chloramphenicol on HL-60 Energy Utilization (HL-60 cells; [7]): 1.7 % of negative control
- Effect of 1 mM chloramphenicol on HL-60 Energy Utilization (HL-60 cells; [8]): 15.7 % of negative control
- Effect of 1 mM chloramphenicol on HL-60 Energy Utilization (HL-60 cells; [9]): 0.6 % of negative control

SMILES: COC(=O)CCC(=O)O [mono methyl succinate]
- activity at 30 µM (HepG2 cells; Homo sapiens, HepG2, 72 h, Conc. 0.03 mM, read-out: HepG2 Cells Responses After 72 hours in Culture and a 4 hour Color Development Period): 144%
- activity at 100 µM (HepG2 cells; Homo sapiens, HepG2, 72 h, Conc. 0.10 mM, read-out: HepG2 Cells Responses After 72 hours in Culture and a 4 hour Color Development Period): 161%
- activity at 330 µM (HepG2 cells; Homo sapiens, HepG2, 72 h, Conc. 0.33 mM, read-out: HepG2 Cells Responses After 72 hours in Culture and a 4 hour Color Development Period): 179%
- activity at 1000 µM (HepG2 cells; Homo sapiens, HepG2, 72 h, Conc. 1.00 mM, read-out: HepG2 Cells Responses After 72 hours in Culture and a 4 hour Color Development Period): 180%
- activity at 3300 µM (HepG2 cells; Homo sapiens, HepG2, 72 h, Conc. 3.3 mM, read-out: HepG2 Cells Responses After 72 hours in Culture and a 4 hour Color Development Period): 200%
- activity at 10000 µM (HepG2 cells; Homo sapiens, HepG2, 72 h, Conc. 10 mM, read-out: HepG2 Cells Responses After 72 hours in Culture and a 4 hour Color Development Period): 224%
- activity at 15000 µM (HepG2 cells; Homo sapiens, HepG2, 72 h, Conc. 15 mM, read-out: HepG2 Cells Responses After 72 hours in Culture and a 4 hour Color Development Period): 357%
- activity at 20000 µM (HepG2 cells; Homo sapiens, HepG2, 72 h, Conc. 20 mM, read-out: HepG2 Cells Responses After 72 hours in Culture and a 4 hour Color Development Period): 238%
- activity at 30 µM ([1]; Homo sapiens, HL-60, 24 h, Conc. 0.03 mM, read-out: Energy Use by Undifferentiated HL-60 Cells): 104%
- activity at 100 µM ([1]; Homo sapiens, HL-60, 24 h, Conc. 0.10 mM, read-out: Energy Use by Undifferentiated HL-60 Cells): 99.9%
- activity at 330 µM ([1]; Homo sapiens, HL-60, 24 h, Conc. 0.33 mM, read-out: Energy Use by Undifferentiated HL-60 Cells): 112%
- activity at 1000 µM ([1]; Homo sapiens, HL-60, 24 h, Conc. 1.00 mM, read-out: Energy Use by Undifferentiated HL-60 Cells): 141%
- activity at 3300 µM ([1]; Homo sapiens, HL-60, 24 h, Conc. 3.3 mM, read-out: Energy Use by Undifferentiated HL-60 Cells): 182%
- activity at 10000 µM ([1]; Homo sapiens, HL-60, 24 h, Conc. 10 mM, read-out: Energy Use by Undifferentiated HL-60 Cells): 223%
- activity at 15000 µM ([1]; Homo sapiens, HL-60, 24 h, Conc. 15 mM, read-out: Energy Use by Undifferentiated HL-60 Cells): 261%
- activity at 20000 µM ([1]; Homo sapiens, HL-60, 24 h, Conc. 20 mM, read-out: Energy Use by Undifferentiated HL-60 Cells): 199%
- Effect of 1 mM chloramphenicol on HL-60 Energy Utilization (HL-60 cells; [2]): 10.4 % of negative control
- Effect of 1 mM chloramphenicol on HL-60 Energy Utilization (HL-60 cells; [3]): −2.1 % of negative control
- Effect of 1 mM chloramphenicol on HL-60 Energy Utilization (HL-60 cells; [4]): 2.6 % of negative control
- Effect of 1 mM chloramphenicol on HL-60 Energy Utilization (HL-60 cells; [5]): 1.8 % of negative control
- Effect of 1 mM chloramphenicol on HL-60 Energy Utilization (HL-60 cells; [6]): 43.3 % of negative control
- Effect of 1 mM chloramphenicol on HL-60 Energy Utilization (HL-60 cells; [7]): 78.1 % of negative control
- Effect of 1 mM chloramphenicol on HL-60 Energy Utilization (HL-60 cells; [8]): 47.8 % of negative control
- Effect of 1 mM chloramphenicol on HL-60 Energy Utilization (HL-60 cells; [9]): 16.2 % of negative control
